According to publication PMC10550821, “Cryo-EM structures reveal native GABAA receptor assemblies and pharmacology” (Nature, 2023):

Key:
[1] = molecular target: T1, GABAA receptor α1 subunit (native α1*-β2-α1-β2*-γ2 nα1-GABAAR) (Mus musculus, UniProt P22723+P62812); test: cryo-EM structure; competitive [3H]flunitrazepam scintillation proximity assay; format: binding
T1 construct: gene Gabra1; main assembly alpha1/beta2/gamma2

[2] = molecular target: T2, GABAA receptor α1 subunit (native α1-containing receptors, nα1-GABAARs) (Mus musculus, UniProt P22723+P62812); test: radioligand binding, scintillation proximity assay
T2 construct: gene Gabra1; native receptor ensemble purified from mouse brain (cerebellum excluded) in nanodiscs; with GABAA receptor γ2 subunit (Gabrg2); β2 subunit (Gabrb2) in the main assembly

[3] = molecular target: T3, GABAA receptor α1 subunit, as it stood in the measurement of the Kd of 8E3-GFP Fab (sample not stated) (Mus musculus (assumed; mature rat chain …, UniProt P62812); test: not stated; dissociation constant of 8E3-GFP Fab, printed with a pointer to Extended Data Fig. 1; method and sample not told
T3 construct: GABAA receptor subunit alpha-1; the Kd may come from such a sample

Q: With `Cc1ccc(-c2nc3ccc(C)cn3c2CC(=O)N(C)C)cc1` [ZOL, zolpidem] as the molecule, how does the Ki [1] read?
A: The Ki was 22.9 ± 2.7 nM.

Q: With `CN1C(=O)CN=C(c2ccccc2F)c2cc([N+](=O)[O-])ccc21` [flunitrazepam] as the molecule, how does the Kd [2] read?
A: The Kd was 6 ± 0.2 nM.

B1: 8E3-GFP Fab (α1 subunit-specific Fab fragment of mouse monoclonal antibody 8E3, with 3C site, EGFP and twin-strep II tag on the heavy chain) (Fab, V domains shown)
VH: EIQLQQSGPELVKPGTSVKVSCKASGYSFTDYNMYWVKQSHGKSLEWIGYIDPYNADTTYNREFKGKATLTVDKSSSTAFMHLNSLTSEDSAVYYCARKRNNFYFDYWGQGTPLTVSS
VL: YIVMTQSPKSMSMSLGERVTLSCRASEYVGSYVSWYQQKPEQSPKLLIYGASNRYTGVPDRFAGSGSATDFTLTITSVQAEDLADYHCGQTYNYPTFGGGTKLEIK
notes: Fab heavy chain of 8E3; Fab light chain of 8E3; Both chains were expressed with an N-terminal GP64 signal peptide; also called α1-specific Fab; source: Sf9, recombinant baculovirus, secreted into the supernatant, purified (streptactin column); not shown: EGFP, C-terminal, kept; twin-strep II, C-terminal, kept
Q: For B1, which Kd [3] is on record?
A: The Kd was 0.5 nM.
